The target in one data set is Syk (Homo sapiens, UniProt P43405). The experiment in a line: Syk enzyme inhibition (FRET). In kind it is biochemical. The following applies: Table 4a1. Summed up: (§1)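 2 hr RT enzyme + cpd (added solns 4/0.4/0.04/0.004 μg/mL); + FRET peptide (8 μM soln) + ATP soln (c-Src 800 μM, Syk 60 μM), 1 hr; protease development 1 hr; read donor/acceptor emission ratio.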
The next data set has as its system d-U937 cells. In words: Cell viability: MTT assay. It counts as cell-based, human. To be noted: 1 μg/mL. An outline of the steps:
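MTT reduction (1 h, DMSO solubilisation, A550) measured after compound treatment at 1 or 10 μg/mL of differentiated U937 cells for 4 h (5% FCS RPMI1640) or 24 h (10% FCS). Percentage viability loss computed relative to 0.5% DMSO vehicle, with increases tabulated as negative values.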

In the next data set the target is cSrc (Homo sapiens, UniProt P12931). In words: c-Src enzyme inhibition (FRET). To be noted: Table 4a1. In kind it is biochemical. An outline of the steps: as §1
Another data set has as its target GSK3α (Homo sapiens, UniProt P49840). The experiment in a line: GSK 3α enzyme inhibition (FRET), Method 1. It counts as biochemical. To be noted: Table 4a1. Summed up: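 GSK3α was preincubated with test compound for 2 hr at RT, then a FRET peptide substrate and ATP were added for 1 hr. Protease development for 1 hr cleaved only non-phosphorylated peptide, and phosphorylation was read as the coumarin/fluorescein emission ratio. Concentrations given are those of the added solutions: enzyme 500 ng/mL, peptide 8 μM, ATP 40 μM.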

Data set [1] relates to IL-8 release, d-U937 cells. The experiment in a line: LPS-induced IL-8 release in d-U937 cells. It counts as cell-based. The following applies: Homo sapiens, dU937; Table 4c1; read-out: LPS Induced Release of Cytokine in d-U937 Cells, IL-8 IC50. Summed up: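 IL-8 release after a 4 hr challenge with LPS (0.1 μg/mL, E. coli 0111:B4) following a 2 hr compound pretreatment. Cells were human U937 monocytes differentiated to macrophage-type with PMA 100 ng/mL for 48–72 hr. Relative 50% effective concentration derived from concentration–response data.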

In data set [2] the test system is TNFα release, d-U937 cells. The experiment in a line: LPS-induced TNFα release in d-U937 cells. It counts as cell-based. To be noted: Homo sapiens, dU937; relative to 10 μg/mL BIRB796; Table 4c1; read-out: LPS Induced Release of Cytokine in d-U937 Cells, TNFα REC50. Summed up:
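Sandwich ELISA quantifies cytokine in supernatants after 4 hr LPS challenge (0.1 μg/mL) of PMA-differentiated (100 ng/mL, 48–72 hr) U937 macrophages given compound 2 hr beforehand. REC50 derived from concentration-response curve, inhibition calculated relative to vehicle.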

Data set [3] has as its system ICAM-1 expression, BEAS2B cells. The experiment in a line: Poly I:C-induced ICAM-1 expression in BEAS2B cells. It counts as cell-based. The following applies: Homo sapiens, BEAS-2B; read-out: Poly IC induced ICAM1 in BEAS2B, IC50. An outline of the steps: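 Cell-based ELISA for surface ICAM-1 in human BEAS2B cells 18 h after transfection with the RNA-virus mimic poly I:C (1 μg/mL, with Oligofectamine), compounds added 2 h beforehand. OD450–655 divided by Crystal Violet OD595 per well; percent inhibition relative to vehicle.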

A word on the IC50: it is the concentration that inhibits the measured activity by half.

Where only a bound is given, the exact number is not on record here.

Sequence of cSrc (P12931 whole entry): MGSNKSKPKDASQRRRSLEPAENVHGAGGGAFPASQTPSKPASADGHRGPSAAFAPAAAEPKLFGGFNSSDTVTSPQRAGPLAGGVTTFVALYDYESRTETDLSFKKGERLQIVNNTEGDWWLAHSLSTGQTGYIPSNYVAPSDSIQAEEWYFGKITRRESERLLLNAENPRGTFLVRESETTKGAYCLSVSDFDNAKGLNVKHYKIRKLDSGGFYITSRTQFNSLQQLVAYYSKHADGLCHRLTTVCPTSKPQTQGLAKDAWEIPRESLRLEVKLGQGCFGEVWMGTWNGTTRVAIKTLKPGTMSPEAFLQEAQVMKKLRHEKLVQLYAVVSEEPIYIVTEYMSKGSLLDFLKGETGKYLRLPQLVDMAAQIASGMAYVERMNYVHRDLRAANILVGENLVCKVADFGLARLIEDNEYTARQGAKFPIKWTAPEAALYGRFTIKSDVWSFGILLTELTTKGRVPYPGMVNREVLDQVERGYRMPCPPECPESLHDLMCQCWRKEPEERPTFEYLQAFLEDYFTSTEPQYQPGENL
Sequence of GSK3α (P49840 whole entry): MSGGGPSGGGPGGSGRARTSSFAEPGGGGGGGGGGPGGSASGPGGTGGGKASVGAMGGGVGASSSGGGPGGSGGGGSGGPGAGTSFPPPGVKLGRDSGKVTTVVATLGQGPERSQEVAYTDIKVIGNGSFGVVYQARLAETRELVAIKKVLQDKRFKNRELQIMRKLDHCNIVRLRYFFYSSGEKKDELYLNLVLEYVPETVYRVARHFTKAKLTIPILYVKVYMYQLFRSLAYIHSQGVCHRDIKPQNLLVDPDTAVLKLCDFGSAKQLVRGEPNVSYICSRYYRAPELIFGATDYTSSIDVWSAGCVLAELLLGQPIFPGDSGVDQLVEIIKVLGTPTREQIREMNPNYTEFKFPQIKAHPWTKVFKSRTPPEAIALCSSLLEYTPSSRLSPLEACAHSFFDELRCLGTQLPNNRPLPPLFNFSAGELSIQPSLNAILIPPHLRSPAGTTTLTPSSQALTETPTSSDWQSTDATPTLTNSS

Consider `COc1ccc(C(=O)NCCO)cc1Nc1nccc(Oc2ccc(NC(=O)Nc3cc(C(C)C)nn3-c3ccc(C)cc3)c3ccccc23)n1` [Example 32, N-(2-hydroxyethyl)-3-((4-((4-(3-(3-isopropyl-1-(p-tolyl)-1H-pyrazol-5-yl)ureido)naphthalen-1-yl)oxy)pyrimidin-2-yl)amino)-4-methoxybenzamide], for which the IC50 is 152 nM against Syk; less than 2 nM against cSrc; more than 14.6 µM on GSK3α; 17.1 nM in data set [1]; 86.7 nM in data set [3]. Also, the “Cell viability at time point in d-U937 cells, 4 h” value in the data set with d-U937 cells was “−ve (−ve and +ve indicate that the value is below and above respectively, the no significant effect threshold, defined as 30% inhibition at 1 μg/mL at the time point indicated)”. In addition, in the data set with d-U937 cells, the “Cell viability at time point in d-U937 cells, 24 h” value (“Cell viability at time point … 24 h” below) was “−ve (−ve and +ve indicate that the value is below and above respectively, the no significant effect threshold, defined as 30% inhibition at 1 μg/mL at the time point indicated)”. The EC50 in data set [2] worked out at 3.1 nM.

On to `COc1ccc(C(=O)NCCO)cc1Nc1nccc(Oc2ccc(NC(=O)Nc3cc(C(C)(C)C)nn3-c3ccc(C)cc3)c3ccccc23)n1` [Example 33, 3-((4-((4-(3-(3-(tert-butyl)-1-(p-tolyl)-1H-pyrazol-5-yl)ureido)naphthalen-1-yl)oxy)pyrimidin-2-yl)amino)-N-(2-hydroxyethyl)-4-methoxybenzamide], for which the half-maximal inhibitory concentration (IC50) at Syk was 98 nM; on cSrc, 3 nM; on GSK3α it was more than 14.3 µM; in data set [1], 4.2 nM; in data set [3], 143 nM. Also, the “Cell viability at time point in d-U937 cells, 4 h” value with d-U937 cells was “−ve (−ve and +ve indicate that the value is below and above respectively, the no significant effect threshold, defined as 30% inhibition at 1 μg/mL at the time point indicated)”. Besides, the “Cell viability at time point … 24 h” value in the data set on d-U937 cells was “−ve (−ve and +ve indicate that the value is below and above respectively, the no significant effect threshold, defined as 30% inhibition at 1 μg/mL at the time point indicated)”. The EC50 in data set [2] turned out to be 1.5 nM.

Take `COc1ccc(-n2nc(C(C)C)cc2NC(=O)Nc2ccc(Oc3ccnc(Nc4cc(C(=O)NCCO)ccc4OC)n3)c3ccccc23)cc1` [Example 34, N-(2-hydroxyethyl)-3-((4-((4-(3-(3-isopropyl-1-(4-methoxyphenyl)-1H-pyrazol-5-yl)ureido)naphthalen-1-yl)oxy)pyrimidin-2-yl)amino)-4-methoxybenzamide]: the IC50 on Syk was 85 nM; against cSrc it was 2 nM; against GSK3α, more than 14.2 µM; in data set [1] it was 73.5 nM; in data set [3] it was 79.9 nM. The “Cell viability at time point in d-U937 cells, 4 h” value in the data set with d-U937 cells was “+ve (−ve and +ve indicate that the value is below and above respectively, the no significant effect threshold, defined as 30% inhibition at 1 μg/mL at the time point indicated)”. Further, the “Cell viability at time point … 24 h” value with d-U937 cells was “−ve (−ve and +ve indicate that the value is below and above respectively, the no significant effect threshold, defined as 30% inhibition at 1 μg/mL at the time point indicated)”. Further, the EC50 in data set [2] was 14.2 nM.

Take `COc1cc(C(=O)NCCN(C)C)ccc1Nc1nccc(Oc2ccc(NC(=O)Nc3cc(C(C)C)nn3-c3ccc(C)cc3)c3ccccc23)n1` [Example 35, N-(2-(dimethylamino)ethyl)-4-((4-((4-(3-(3-isopropyl-1-(p-tolyl)-1H-pyrazol-5-yl)ureido)naphthalen-1-yl)oxy)pyrimidin-2-yl)amino)-3-methoxybenzamide]: the 50% inhibitory concentration (IC50) against Syk is 30 nM; against cSrc, less than 1 nM; on GSK3α it was more than 14 µM; in data set [1] it was 3.2 nM; in data set [3], 140 nM. Besides, the “Cell viability at time point in d-U937 cells, 4 h” value with d-U937 cells was “−ve (−ve and +ve indicate that the value is below and above respectively, the no significant effect threshold, defined as 30% inhibition at 1 μg/mL at the time point indicated)”. Besides, in the data set on d-U937 cells, the “Cell viability at time point … 24 h” value was “−ve (−ve and +ve indicate that the value is below and above respectively, the no significant effect threshold, defined as 30% inhibition at 1 μg/mL at the time point indicated)”. The EC50 in data set [2] is 27.8 nM.

On to `COc1cc(C(=O)NCCN2CCOCC2)ccc1Nc1nccc(Oc2ccc(NC(=O)Nc3cc(C(C)(C)C)nn3-c3ccc(C)cc3)c3ccccc23)n1` [Example 37, 4-((4-((4-(3-(3-(tert-butyl)-1-(p-tolyl)-1H-pyrazol-5-yl)ureido)naphthalen-1-yl)oxy)pyrimidin-2-yl)amino)-3-methoxy-N-(2-morpholinoethyl)benzamide], for which the IC50 against Syk was 149 nM; against cSrc, 27 nM; on GSK3α, more than 13 µM; in data set [1] it was 24.1 nM; in data set [3], 19.6 nM. Further, the “Cell viability at time point in d-U937 cells, 4 h” value with d-U937 cells was “−ve (−ve and +ve indicate that the value is below and above respectively, the no significant effect threshold, defined as 30% inhibition at 1 μg/mL at the time point indicated)”. Moreover, in the data set on d-U937 cells, the “Cell viability at time point … 24 h” value was “−ve (−ve and +ve indicate that the value is below and above respectively, the no significant effect threshold, defined as 30% inhibition at 1 μg/mL at the time point indicated)”. In addition, the EC50 in data set [2] was 3.7 nM.

With `COc1ccc(-n2nc(C(C)C)cc2NC(=O)Nc2ccc(Oc3ccnc(Nc4ccc(C(=O)NCCN5CCOCC5)cc4OC)n3)c3ccccc23)cc1` [Example 38, 4-((4-((4-(3-(3-isopropyl-1-(4-methoxyphenyl)-1H-pyrazol-5-yl)ureido)naphthalen-1-yl)oxy)pyrimidin-2-yl)amino)-3-methoxy-N-(2-morpholinoethyl)benzamide], the IC50 at Syk is 54 nM; against cSrc, 9 nM; at GSK3α, more than 13 µM; in data set [1], 60.6 nM; in data set [3] it was 35.7 nM. Moreover, the “Cell viability at time point in d-U937 cells, 4 h” value in the data set with d-U937 cells is “−ve (−ve and +ve indicate that the value is below and above respectively, the no significant effect threshold, defined as 30% inhibition at 1 μg/mL at the time point indicated)”. The “Cell viability at time point … 24 h” value in the data set on d-U937 cells is “−ve (−ve and +ve indicate that the value is below and above respectively, the no significant effect threshold, defined as 30% inhibition at 1 μg/mL at the time point indicated)”. The EC50 in data set [2] came out at 20.2 nM.

In the case of `COc1cc(C(=O)NCCO)ccc1Nc1nccc(Oc2ccc(NC(=O)Nc3cc(C(C)C)nn3-c3ccc(C)cc3)c3ccccc23)n1` [Example 39, N-(2-hydroxyethyl)-4-((4-((4-(3-(3-isopropyl-1-(p-tolyl)-1H-pyrazol-5-yl)ureido)naphthalen-1-yl)oxy)pyrimidin-2-yl)amino)-3-methoxybenzamide], the half-maximal inhibitory concentration (IC50) was 130 nM against Syk; 8 nM against cSrc; more than 14.6 µM at GSK3α; 15.7 nM in data set [1]; 146 nM in data set [3]. Further, in the data set on d-U937 cells, the “Cell viability at time point in d-U937 cells, 4 h” value is “−ve (−ve and +ve indicate that the value is below and above respectively, the no significant effect threshold, defined as 30% inhibition at 1 μg/mL at the time point indicated)”. The “Cell viability at time point … 24 h” value with d-U937 cells was “−ve (−ve and +ve indicate that the value is below and above respectively, the no significant effect threshold, defined as 30% inhibition at 1 μg/mL at the time point indicated)”. Besides, in data set [2], the EC50 was 3.6 nM.
